Source: patent US10703764B2, “Benzopiperazine compositions as BET bromodomain inhibitors” (FORMA Therapeutics, Inc., priority 2013, dated 2020)
pIC50: −log10 of the molar value.

Columns and labels:
MV4-11 cells = assay: Oncology cell growth assay (3-day proliferation, CellTiter-Glo); format: cell-based; conditions: Homo sapiens, MV4-11, 72 h, AML cell line MV4-11, 72 hours, compounds grouped by IC50 range, read-out: MV4-11 IC50 (inhibition of proliferation, gIC50)
How it was run: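 A 3-day proliferation test used MV4-11 cells seeded at 3000 per well with eight compound concentrations (10 μM top, 3-fold dilution) at 37° C in 5% CO2. CellTiter-Glo luminescence defined viable cell signal. A four-parameter logistic curve against DMSO and background wells gave the gIC50.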

BRD4 BD1 = molecular target: T1, BRD4 BD1 (Homo sapiens, UniProt O60885); assay: AlphaScreen binding assay, BRD4 Bromodomain 1
T1 construct: made in house
How it was run: (§1)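 Compound dilution series were mixed with His-tagged BRD4 bromodomain and biotinylated tetra-acetylated H4 (1-21) peptide at pH 7.3 (BD1 and peptide at 50 nM, BD2 and peptide at 100 nM). Donor and acceptor beads were then added, and plates were equilibrated at least 1 h before reading. IC50 values were fitted with a four-parameter logistic model.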

BRD4 BD2 = molecular target: T2, BRD4 BD2 (Homo sapiens, UniProt O60885); assay: AlphaScreen binding assay, BRD4 Bromodomain 2
T2 construct: made in house
How it was run: as §1

Row | SMILES | pIC50 (MV4-11 cells) | pIC50 (BRD4 BD1) | pIC50 (BRD4 BD2)
1 | CC(=O)N1c2ccc(-c3cnn(CCO)c3)cc2N(C(=O)N(C)c2ccccc2)C[C@@H]1C [Example I-1212] | < 6.30 | < 5.00 | < 6.30
2 | CC(=O)N1c2ccc(-c3cnn(C4CC4)c3)cc2N(C(=O)C2CC2)C[C@@H]1C [Example I-8, (S)-1-(4-(cyclopropanecarbonyl)-6-(1-cyclopropyl-1H-pyrazol-4-yl)-2-methyl-3,4-dihydroquinoxalin-1(2H)-yl)ethanone] | 6.30 to 7.00 | 6.00 to 7.00 | > 7.30
3 | CC(=O)N1c2ccc(-c3ccc(N4CCS(=O)(=O)CC4)cc3)cc2N(C(=O)OC(C)C)C[C@@H]1C [Example I-467] | 6.30 to 7.00 | 6.00 to 7.00 | 6.30 to 7.30
4 | CC(=O)N1c2ccc(-c3ccc(S(=O)(=O)CCO)cc3)cc2N(C(=O)C2CC2)C[C@@H]1C [Example I-449] | < 6.30 | 6.00 to 7.00 | 6.30 to 7.30
5 | CC(=O)N1c2ccc(-c3ccc(C(=O)NCCO)cc3)cc2N(C(=O)c2ccco2)C[C@@H]1C [Example I-290] | 6.30 to 7.00 | 5.00 to 6.00 | > 7.30
6 | CC(=O)N1c2ccc(-c3ccc(C(=O)N(C)CC(=O)N(C)C)cc3)cc2N(C(=O)OC(C)C)C[C@@H]1C [Example I-550] | 6.30 to 7.00 | > 7.00 | 6.30 to 7.30
7 | CC(=O)N1c2ccc(-c3ccc(OCCN(C)C)cc3)cc2N(C(=O)c2ccco2)C[C@@H]1C [Example I-276] | > 7.00 | 5.00 to 6.00 | > 7.30
8 | CC(=O)N1c2ccc(-c3cnn(CC(C)C)c3)cc2N(C(=O)C2CC2)CC1C (stereo not drawn) [Example I-670] | 6.30 to 7.00 | 6.00 to 7.00 | 6.30 to 7.30
9 | CCOC(=O)N1C[C@H](C)N(C(C)=O)c2ccc(-c3cnn(C4COC4)c3)cc21 [Example I-9, (S)-ethyl 4-acetyl-3-methyl-7-(1-(oxetan-3-yl)-1H-pyrazol-4-yl)-3,4-dihydro-quinoxaline-1(2H)-carboxylate] | 6.30 to 7.00 | 6.00 to 7.00 | 6.30 to 7.30
10 | CC(=O)N1c2ccc(-c3cnn(CCF)c3)cc2N(C(=O)OC(C)C)C[C@@H]1C [Example I-666] | 6.30 to 7.00 | 6.00 to 7.00 | 6.30 to 7.30
11 | CC(C)OC(=O)N1C[C@H](C)N(C(=O)C2CC2)c2ccc(-c3cnc(N)cn3)cc21 [Example I-472] | < 6.30 | 6.00 to 7.00 | < 6.30
12 | CC(=O)N1c2ccc(-c3ccc(S(C)(=O)=O)cc3)cc2N(C(=O)Oc2ccc3ccccc3c2)C[C@@H]1C [Example I-239] | 6.30 to 7.00 | 5.00 to 6.00 | > 7.30
13 | CCS(=O)(=O)Nc1ccc(-c2ccc3c(c2)N(C(=O)OC(C)C)C[C@H](C)N3C(C)=O)cc1 [Example I-1138] | 6.30 to 7.00 | 6.00 to 7.00 | 6.30 to 7.30
14 | CC(=O)N1c2ccc(-c3cnn(C4COC4)c3)cc2N(C(=O)C2CC2)C[C@@H]1C [Example I-10, (S)-1-(4-(cyclopropanecarbonyl)-2-methyl-6-(1-(oxetan-3-yl)-1H-pyrazol-4-yl)-3,4-dihydroquinoxalin-1(2H)-yl)ethanone] | 6.30 to 7.00 | 6.00 to 7.00 | 6.30 to 7.30
15 | CC(=O)N1c2ccc(-c3cccc(S(=O)(=O)N(C)C)c3)cc2N(C(=O)OC2CCOCC2)C[C@@H]1C [Example I-1224] | 6.30 to 7.00 | 6.00 to 7.00 | 6.30 to 7.30
16 | CC(=O)N1c2ccc(-c3cnn(C4CC4)c3)cc2N(C(=O)Oc2ccc(Cl)cc2C)C[C@@H]1C [Example I-267] | 6.30 to 7.00 | 6.00 to 7.00 | > 7.30
17 | CC(=O)N1c2ccc(-c3ccc(C(=O)N[C@H]4C[C@H]5CC[C@@H](C4)N5)cc3)cc2N(C(=O)OC(C)C)C[C@@H]1C [Example I-594] | 6.30 to 7.00 | 6.00 to 7.00 | 6.30 to 7.30
18 | CNC(=O)CN(C)C(=O)c1ccc(-c2ccc3c(c2)N(C(=O)OC(C)C)C[C@H](C)N3C(C)=O)cc1 [Example I-554] | 6.30 to 7.00 | > 7.00 | > 7.30
19 | CC(=O)N1c2ccc(-c3cccc(S(C)(=O)=O)c3)cc2N(C(=O)OC(C)C)C[C@@H]1C [Example I-1053] | 6.30 to 7.00 | 5.00 to 6.00 | 6.30 to 7.30
20 | CC(C)OC(=O)N1C[C@H](C)N(C(=O)C2CC2)c2ccc(-c3ccc(N4CCS(=O)(=O)CC4)cc3)cc21 [Example I-468] | 6.30 to 7.00 | 6.00 to 7.00 | 6.30 to 7.30

Row | SMILES | pIC50 (MV4-11 cells) | pIC50 (BRD4 BD1) | pIC50 (BRD4 BD2)
21 | COc1c(OC(=O)N2C[C@H](C)N(C(C)=O)c3ccc(-c4cnn(C5CC5)c4)cc32)ccnc1C [Example I-522] | > 7.00 | 6.00 to 7.00 | 6.30 to 7.30
22 | CC(=O)N1c2ccc(-c3ccc(S(=O)(=O)CC(C)C)cc3)cc2N(C(=O)OC2CCCCC2)C[C@@H]1C [Example I-1239] | 6.30 to 7.00 | 6.00 to 7.00 | 6.30 to 7.30
23 | CC(=O)N1c2ccc(-c3cnn(CCC(F)(F)F)c3)cc2N(C(=O)C2CC2)C[C@@H]1C [Example I-150, (S)-1-(4-(cyclopropanecarbonyl)-2-methyl-6-(1-(3,3,3-trifluoropropyl)-1H-pyrazol-4-yl)-3,4-dihydroquinoxalin-1(2H)-yl)ethanone] | < 6.30 | 6.00 to 7.00 | > 7.30
24 | COC(=O)N1c2ccc(-c3ccc(C(=O)N4CCNCC4)cc3)cc2N(C(=O)OC(C)C)C[C@@H]1C [Example I-559] | 6.30 to 7.00 | 6.00 to 7.00 | 6.30 to 7.30
25 | CC(=O)N1c2ccc(-c3ccc(S(=O)(=O)CCN)cc3)cc2N(C(=O)c2ccco2)C[C@@H]1C [Example I-425] | 6.30 to 7.00 | 6.00 to 7.00 | > 7.30
26 | CC(=O)N1c2ccc(-c3ccc(C(=O)N4CC[C@@H](N(C)C)C4)cc3)cc2N(C(=O)OC(C)C)C[C@@H]1C [Example I-542] | > 7.00 | > 7.00 | > 7.30
27 | COc1ccc(OC(=O)N2C[C@H](C)N(C(C)=O)c3ccc(-c4cnn(C5COC5)c4)cc32)cc1 [Example I-87, (S)-4-methoxyphenyl 4-acetyl-3-methyl-7-(1-(oxetan-3-yl)-1H-pyrazol-4-yl)-3,4-dihydroquinoxaline-1(2H)-carboxylate] | > 7.00 | > 7.00 | > 7.30
28 | CC(=O)N1c2ccc(-c3ccc(S(=O)(=O)N4CCN(C)CC4)cc3)cc2N(C(=O)c2ccco2)C[C@@H]1C [Example I-278] | 6.30 to 7.00 | 5.00 to 6.00 | > 7.30
29 | CNS(=O)(=O)c1cccc(-c2ccc3c(c2)N(C(=O)OC2CCCCC2)C[C@H](C)N3C(C)=O)c1 [Example I-1253] | 6.30 to 7.00 | 6.00 to 7.00 | 6.30 to 7.30
30 | CC(=O)N1c2ccc(-c3cnn(CC(=O)N(C)C)c3)cc2N(C(=O)OC(C)C)C[C@@H]1C [Example I-305] | 6.30 to 7.00 | 6.00 to 7.00 | 6.30 to 7.30
31 | CC(=O)N1c2ccc(-c3cnn(C4CC4)c3)cc2N(C(=O)Oc2cc(F)ccc2F)C[C@@H]1C [Example I-503] | 6.30 to 7.00 | 6.00 to 7.00 | 6.30 to 7.30
32 | CC(=O)N1c2ccc(-c3ccc(S(N)(=O)=O)cc3)cc2N(C(=O)OC2CCOCC2)C[C@@H]1C [Example I-1234] | 6.30 to 7.00 | 6.00 to 7.00 | 6.30 to 7.30
33 | CC(=O)N1c2ccc(-c3cnn(C4COC4)c3)cc2N(C(=O)Oc2ccc(F)cc2)C[C@@H]1C [Example I-85, 4-fluorophenyl (S)-4-acetyl-3-methyl-7-(1-(oxetan-3-yl)-1H-pyrazol-4-yl)-3,4-dihydroquinoxaline-1(2H)-carboxylate] | 6.30 to 7.00 | > 7.00 | > 7.30
34 | CC(=O)N1c2ccc(-c3cnn(Cc4cc(C)no4)c3)cc2N(C(=O)OC(C)C)C[C@@H]1C [Example I-141, (S)-isopropyl 4-acetyl-3-methyl-7-(1-((3-methylisoxazol-5-yl)methyl)-1H-pyrazol-4-yl)-3,4-dihydroquinoxaline-1(2H)-carboxylate] | 6.30 to 7.00 | 6.00 to 7.00 | > 7.30
35 | CC(=O)N1c2ccc(-c3cnn(CC4(CO)COC4)c3)cc2N(C(=O)C2CC2)C[C@@H]1C [Example I-662] | < 6.30 | 6.00 to 7.00 | 6.30 to 7.30
36 | CC(=O)N1c2ccc(-c3cnn(C4CCNCC4)c3)cc2N(c2nn(C)c3cnccc23)C[C@@H]1C [Example I-182, (S)-1-(2-methyl-4-(1-methyl-1H-pyrazolo[3,4-c]pyridin-3-yl)-6-(1-(piperidin-4-yl)-1H-pyrazol-4-yl)-3,4-dihydroquinoxalin-1(2H)-yl)ethanone] | 6.30 to 7.00 | 6.00 to 7.00 | > 7.30
37 | COC(=O)N1c2ccc(-c3cnn(C4COC4)c3)cc2N(C(=O)OC(C)C)C[C@@H]1C [Example I-326] | < 6.30 | 6.00 to 7.00 | 6.30 to 7.30
38 | CC(=O)N1c2ccc(-c3cnn(CCn4cncn4)c3)cc2N(C(=O)OC(C)C)C[C@@H]1C [Example I-139, (S)-isopropyl 7-(1-(2-(1H-1,2,4-triazol-1-yl)ethyl)-1H-pyrazol-4-yl)-4-acetyl-3-methyl-3,4-dihydroquinoxaline-1 (2H)-carboxylate] | 6.30 to 7.00 | 6.00 to 7.00 | > 7.30
39 | CC(=O)N1c2ccc(-c3cccc(-c4ccccc4)c3)cc2N(C(=O)COc2ccccc2)C[C@@H]1C [Example I-792] | < 6.30 | < 5.00 | 6.30 to 7.30
40 | CC(=O)N1c2ccc(-c3cnn(C4CC4)c3)cc2N(C(=O)Oc2ccccc2Cl)C[C@@H]1C [Example I-257] | 6.30 to 7.00 | 6.00 to 7.00 | > 7.30
